Where two headings read alike, the source gives them in different places.
Experiments:
MAGL [1] = biological target: T1, MAGL (Mus musculus (Mouse), UniProt O35678); assay: In vitro competitive activity-based protein profiling (mouse brain membrane fraction or cell lysates), MAGL band; type: biochemical; conditions: for inhibition at 1 µM: read-out: MAGL % Inh 1 μM (mouse); for IC50: competitive ABPP
Description: In Vitro Competitive Activity-Based Protein Profiling.
Proteomes (mouse brain membrane fraction or cell lysates) (50 μL, 1.0 mg/mL total protein concentration) were preincubated with varying concentrations of inhibitors at 37° C. After 30 min, FP—Rh (1.0 μL, 50 μM in DMSO) was added and the mixture was incubated for another 30 min at 37° C. Reactions were quenched with SDS loading buffer (50 μL-4×) and run on SDS-PAGE.

MAGL [2] = biological target: T1, MAGL; assay: Mouse brain proteomes from inhibitor treated mice (oral gavage, sacrificed 4 h after administration, ABPP analysis); type: in vivo, mouse (C57Bl/6J); conditions: 5 mg/kg oral gavage
Description: (§1) Preparation of Mouse Brain Proteomes from Inhibitor Treated Mice.
(§2) Inhibitors were administered to wild-type C57Bl/6J by oral gavage in a vehicle, e.g. PEG400/Ethanol/PBS (7/2/1). Each animal was sacrificed 4 h following administration and brain proteomes were prepared and analyzed according to previously established methods (See Niphakis, M. J., et al. (2011) ACS Chem. Neurosci. and Long, J. Z., et al. Nat. Chem. Biol. 5:37-44). Data from this assay is shown in Table 2 (% inhibition at 5 mg/kg).

ABHD6 [3] = biological target: T2, ABHD6 (Mus musculus (Mouse), UniProt Q8R2Y0); assay: In vitro competitive activity-based protein profiling (mouse brain membrane fraction or cell lysates), ABHD6 band; type: biochemical; conditions: for inhibition at 1 µM: read-out: ABHD6 % Inh 1 μM (mouse); for IC50: competitive ABPP
T2 sequence (Q8R2Y0 whole entry): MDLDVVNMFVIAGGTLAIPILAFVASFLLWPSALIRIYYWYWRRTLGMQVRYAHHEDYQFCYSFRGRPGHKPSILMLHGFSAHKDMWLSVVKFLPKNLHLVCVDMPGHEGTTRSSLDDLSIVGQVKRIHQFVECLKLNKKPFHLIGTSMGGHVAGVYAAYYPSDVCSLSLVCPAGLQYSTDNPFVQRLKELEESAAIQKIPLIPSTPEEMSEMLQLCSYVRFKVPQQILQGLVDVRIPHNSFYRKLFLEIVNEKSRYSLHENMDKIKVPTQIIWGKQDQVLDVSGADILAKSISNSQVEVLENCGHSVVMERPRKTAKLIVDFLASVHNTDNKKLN
How it was run: (§3)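 Mouse proteome samples (brain membrane fraction or cell lysate, 1.0 mg/mL protein) were pretreated with varying inhibitor concentrations and subsequently probed with fluorophosphonate-rhodamine, each step lasting 30 min at 37° C. Labelled proteins were separated by SDS-PAGE, and band fluorescence was imaged and quantified.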

FAAH [4] = biological target: T3, FAAH (Mus musculus (Mouse), UniProt O08914); assay: In vitro competitive activity-based protein profiling (mouse brain membrane fraction or cell lysates), FAAH band; type: biochemical; conditions: for inhibition at 1 µM: read-out: FAAH % Inh 1 μM (mouse); for IC50: competitive ABPP
T3 sequence (O08914 whole entry): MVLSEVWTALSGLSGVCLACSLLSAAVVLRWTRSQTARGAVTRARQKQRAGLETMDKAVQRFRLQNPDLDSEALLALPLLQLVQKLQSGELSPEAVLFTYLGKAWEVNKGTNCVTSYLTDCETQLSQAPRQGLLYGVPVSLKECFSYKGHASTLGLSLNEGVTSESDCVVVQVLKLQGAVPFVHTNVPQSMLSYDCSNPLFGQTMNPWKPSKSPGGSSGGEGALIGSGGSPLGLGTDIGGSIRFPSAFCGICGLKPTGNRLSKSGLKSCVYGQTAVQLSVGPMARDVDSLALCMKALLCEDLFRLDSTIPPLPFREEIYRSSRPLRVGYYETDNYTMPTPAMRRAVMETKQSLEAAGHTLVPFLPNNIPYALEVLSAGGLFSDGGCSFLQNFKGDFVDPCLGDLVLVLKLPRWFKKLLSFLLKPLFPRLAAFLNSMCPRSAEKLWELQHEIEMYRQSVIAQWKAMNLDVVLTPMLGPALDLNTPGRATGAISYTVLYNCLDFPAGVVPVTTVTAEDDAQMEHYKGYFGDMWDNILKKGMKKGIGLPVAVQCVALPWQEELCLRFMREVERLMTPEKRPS
How it was run: as §3

FAAH [5] = biological target: T3, FAAH; assay: Mouse brain proteomes from inhibitor treated mice (oral gavage, sacrificed 4 h after administration, ABPP analysis), FAAH; type: in vivo, mouse (C57Bl/6J); conditions: 5 mg/kg oral gavage
Description: as §1, §2

ABHD6 [6] = biological target: T2, ABHD6; assay: Mouse brain proteomes from inhibitor treated mice (oral gavage, sacrificed 4 h after administration, ABPP analysis), ABHD6; type: in vivo, mouse (C57Bl/6J); conditions: 5 mg/kg oral gavage
Description: as §1, §2

T1 sequence (O35678 whole entry): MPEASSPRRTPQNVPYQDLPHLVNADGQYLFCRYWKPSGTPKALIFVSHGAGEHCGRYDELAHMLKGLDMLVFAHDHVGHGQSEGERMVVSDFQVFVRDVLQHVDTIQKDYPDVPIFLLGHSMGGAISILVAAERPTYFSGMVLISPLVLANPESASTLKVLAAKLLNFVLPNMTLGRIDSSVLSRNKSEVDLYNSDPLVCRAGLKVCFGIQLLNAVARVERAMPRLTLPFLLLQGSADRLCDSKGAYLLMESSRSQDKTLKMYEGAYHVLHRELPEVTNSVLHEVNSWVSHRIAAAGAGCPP

| Compound | inhibition at 1 µM (MAGL [1]; mouse proteome) [%] | IC50 (MAGL [1]; mouse proteome) [µM] | MAGL % Inh 5 mg/kg (mouse) (MAGL [2]) | inhibition at 1 µM (ABHD6 [3]; mouse proteome) [%] | IC50 (ABHD6 [3]; mouse proteome) [µM] | inhibition at 1 µM (FAAH [4]; mouse proteome) [%] | IC50 (FAAH [4]; mouse proteome) [µM] | FAAH % Inh 5 mg/kg (mouse) (FAAH [5]) | ABHD6 % Inh 5 mg/kg (mouse) (ABHD6 [6]) | inhibition at 1 µM (MAGL [1]; mouse) [%] | inhibition at 1 µM (ABHD6 [3]; mouse) [%] | inhibition at 1 µM (FAAH [4]; mouse) [%] |
| --- | --- | --- | --- | --- | --- | --- | --- | --- | --- | --- | --- | --- |
| CCOc1ccc(CN2CCCC23CCN(C(=O)OC(C(F)(F)F)C(F)(F)F)CC3)cc1 [Example 4, 1,1,1,3,3,3-Hexafluoropropan-2-yl 1-(4-ethoxybenzyl)-1,8-diazaspiro[4.5]decane-8-carboxylate] | > 75 | 0.1 to 1 | ### (### is ≥75%) | < 25 | > 1 | < 25 | > 1 | # (# is <25%) | # (# is <25%) | – | – | – |
| CCOc1cccc(CN2CCCC23CCN(C(=O)OC(C(F)(F)F)C(F)(F)F)CC3)c1 [Example 5, 1,1,1,3,3,3-Hexafluoropropan-2-yl 1-(3-ethoxybenzyl)-1,8-diazaspiro[4.5]decane-8-carboxylate] | > 75 | < 0.1 | ### (### is ≥75%) | < 25 | > 1 | < 25 | > 1 | # (# is <25%) | ## (## is equal to or greater than 25% but less than 75%) | – | – | – |
| COc1cccc(CN2CCCC23CCN(C(=O)OC(C(F)(F)F)C(F)(F)F)CC3)c1Cl [Example 7, 1,1,1,3,3,3-Hexafluoropropan-2-yl 1-(2-chloro-3-methoxybenzyl)-1,8-diazaspiro[4.5]decane-8-carboxylate] | – | < 0.1 | ### (### is ≥75%) | – | > 1 | – | > 1 | ### (### is ≥75%) | # (# is <25%) | – | – | – |
| COc1ccc(F)cc1CN1CCCC12CCN(C(=O)OC(C(F)(F)F)C(F)(F)F)CC2 [Example 8, 1,1,1,3,3,3-Hexafluoropropan-2-yl 1-(5-fluoro-2-methoxybenzyl)-1,8-diazaspiro[4.5]decane-8-carboxylate] | – | < 0.1 | ### (### is ≥75%) | – | > 1 | – | > 1 | ## (## is equal to or greater than 25% but less than 75%) | ## (## is equal to or greater than 25% but less than 75%) | – | – | – |
| COc1cc(Cl)ccc1CN1CCCC12CCN(C(=O)OC(C(F)(F)F)C(F)(F)F)CC2 [Example 9, 1,1,1,3,3,3-Hexafluoropropan-2-yl 1-(4-chloro-2-methoxybenzyl)-1,8-diazaspiro[4.5]decane-8-carboxylate] | – | < 0.1 | ### (### is ≥75%) | – | > 1 | – | > 1 | # (# is <25%) | # (# is <25%) | – | – | – |
| COc1c(Cl)cccc1CN1CCCC12CCN(C(=O)OC(C(F)(F)F)C(F)(F)F)CC2 [Example 10, 1,1,1,3,3,3-Hexafluoropropan-2-yl 1-(3-chloro-2-methoxybenzyl)-1,8-diazaspiro[4.5]decane-8-carboxylate] | – | < 0.1 | ### (### is ≥75%) | – | > 1 | – | > 1 | ## (## is equal to or greater than 25% but less than 75%) | # (# is <25%) | – | – | – |
| O=C(OC(C(F)(F)F)C(F)(F)F)N1CCC2(CCN(Cc3ccc(Cl)cc3N3CCCC3)C2)CC1 [Example 17, 1,1,1,3,3,3-Hexafluoropropan-2-yl 2-(4-chloro-2-(pyrrolidin-1-yl)benzyl)-2,8-diazaspiro[4.5]decane-8-carboxylate] | > 75 | < 0.1 | ## (## is equal to or greater than 25% but less than 75%) | ≥ 75 | > 1 | < 25 | > 1 | # (# is <25%) | # (# is <25%) | – | – | – |
| O=C(OC(C(F)(F)F)C(F)(F)F)N1CCC2(CCN(Cc3c(N4CC5COCC5C4)cccc3C(F)(F)F)C2)CC1 (stereo not drawn) [Example 18, 1,1,1,3,3,3-Hexafluoropropan-2-yl 2-(2-(tetrahydro-1H-furo[3,4-c]pyrrol-5(3H)-yl)-6-(trifluoromethyl)benzyl)-2,8-diazaspiro[4.5]decane-8-carboxylate] | > 75 | < 0.1 | ## (## is equal to or greater than 25% but less than 75%) | 25 to 75 | > 1 | < 25 | > 1 | # (# is <25%) | # (# is <25%) | – | – | – |
| O=C(OC(C(F)(F)F)C(F)(F)F)N1CCC2(CCCN2Cc2ccc(Cl)cc2N2CCN(CCF)CC2)CC1 [Example 19, 1,1,1,3,3,3-Hexafluoropropan-2-yl 1-(4-chloro-2-(4-(2-fluoroethyl)piperazin-1-yl)benzyl)-1,8-diazaspiro[4.5]decane-8-carboxylate] | – | < 0.1 | ## (## is equal to or greater than 25% but less than 75%) | – | > 1 | – | > 1 | # (# is <25%) | # (# is <25%) | – | – | – |
| O=C(O)[C@H]1CCCN(c2cc(CN3CCCC34CCN(C(=O)OC(C(F)(F)F)C(F)(F)F)CC4)cc(C(F)(F)F)c2)C1 [Example 213] | > 75 | – | – | < 25 | – | < 25 | – | – | – | – | – | – |
| O=C(O)C1COCCN1c1cc(C(F)(F)F)ccc1CN1CCC2(CCN(C(=O)OC(C(F)(F)F)C(F)(F)F)CC2)C1 (stereo not drawn) [Example 220] | 25 to 75 | – | – | < 25 | – | < 25 | – | – | – | – | – | – |
| O=C(O)C1CCCCN1c1cc(C(F)(F)F)ccc1CN1CCC2(CCN(C(=O)OC(C(F)(F)F)C(F)(F)F)CC2)C1 (stereo not drawn) [Example 224] | – | – | – | – | – | – | – | – | – | 25 to 75 | < 25 | < 25 |
| O=C(O)c1cccc(CN2CCCC23CCN(C(=O)OC(C(F)(F)F)C(F)(F)F)CC3)c1 [Example 242] | – | – | – | – | – | – | – | – | – | 25 to 75 | 25 to 75 | < 25 |

Now from value to compound:

| inhibition at 1 µM (MAGL [1]; mouse proteome) [%] | IC50 (MAGL [1]; mouse proteome) [µM] | MAGL % Inh 5 mg/kg (mouse) (MAGL [2]) | inhibition at 1 µM (ABHD6 [3]; mouse proteome) [%] | IC50 (ABHD6 [3]; mouse proteome) [µM] | inhibition at 1 µM (FAAH [4]; mouse proteome) [%] | IC50 (FAAH [4]; mouse proteome) [µM] | FAAH % Inh 5 mg/kg (mouse) (FAAH [5]) | ABHD6 % Inh 5 mg/kg (mouse) (ABHD6 [6]) | inhibition at 1 µM (MAGL [1]; mouse) [%] | inhibition at 1 µM (ABHD6 [3]; mouse) [%] | inhibition at 1 µM (FAAH [4]; mouse) [%] | Compound |
| --- | --- | --- | --- | --- | --- | --- | --- | --- | --- | --- | --- | --- |
| – | – | – | – | – | – | – | – | – | > 75 | < 25 | < 25 | O=C(O)c1ccc(CN2CCCC23CCN(C(=O)OC(C(F)(F)F)C(F)(F)F)CC3)cc1 [Example 250] |
| – | – | – | – | – | – | – | – | – | 25 to 75 | < 25 | < 25 | O=C(O)c1ccccc1CN1CCCC12CCN(C(=O)OC(C(F)(F)F)C(F)(F)F)CC2 [Example 251] |
| – | – | – | – | – | – | – | – | – | 25 to 75 | < 25 | < 25 | COc1ccc(CN2CCCC23CCN(C(=O)OC(C(F)(F)F)C(F)(F)F)CC3)cc1C(=O)O [Example 254] |
| – | – | – | – | – | – | – | – | – | < 25 | < 25 | < 25 | Cc1ccc(CN2CCCC23CCN(C(=O)OC(C(F)(F)F)C(F)(F)F)CC3)cc1C(=O)O [Example 257] |
| – | – | – | – | – | – | – | – | – | < 25 | < 25 | < 25 | O=C(O)C1CCCCN1c1cc(C(F)(F)F)ccc1CN1CCCC12CCN(C(=O)OC(C(F)(F)F)C(F)(F)F)CC2 (stereo not drawn) [Example 259] |
| – | – | – | – | – | – | – | – | – | > 75 | 25 to 75 | < 25 | NC(=O)C1CCN(c2cc(C(F)(F)F)ccc2CN2CCCC23CCN(C(=O)OC(C(F)(F)F)C(F)(F)F)CC3)CC1 [Example 273] |

— US10030020B2, “Spirocycle compounds and methods of making and using same” (Abide Therapeutics, Inc., priority 2016, dated 2018)
